The text below walks through data of EP0433679A2, “Pharmaceutical compositions for inhibition of maillard's reaction” (Senju Pharmaceutical Co., Ltd., priority 1989, dated 1991).

The target in the test is bovine serum albumine (Bos taurus, UniProt P02769). In words: Inhibition of furosine formation (non-enzymatic glycosylation of BSA by glucose, furosine determined by HPLC). To be noted: 672 h, pH 7.3, read-out: Inhibition rate (%).
Sequence of bovine serum albumine (P02769 25-607): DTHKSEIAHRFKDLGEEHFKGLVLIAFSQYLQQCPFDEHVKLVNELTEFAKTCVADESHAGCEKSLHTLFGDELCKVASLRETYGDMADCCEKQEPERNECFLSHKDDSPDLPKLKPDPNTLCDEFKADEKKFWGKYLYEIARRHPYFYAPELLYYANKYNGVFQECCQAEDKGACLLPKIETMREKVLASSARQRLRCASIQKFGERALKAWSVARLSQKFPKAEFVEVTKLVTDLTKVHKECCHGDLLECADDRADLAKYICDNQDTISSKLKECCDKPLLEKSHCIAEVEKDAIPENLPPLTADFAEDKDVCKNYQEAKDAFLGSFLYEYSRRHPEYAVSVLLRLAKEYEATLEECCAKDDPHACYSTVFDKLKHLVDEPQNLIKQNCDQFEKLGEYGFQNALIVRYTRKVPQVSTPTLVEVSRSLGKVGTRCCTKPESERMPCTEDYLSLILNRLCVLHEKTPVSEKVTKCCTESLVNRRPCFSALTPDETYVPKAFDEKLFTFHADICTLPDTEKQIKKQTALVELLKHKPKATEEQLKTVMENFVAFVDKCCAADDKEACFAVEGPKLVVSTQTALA
Method: The sample solutions were kept for 4 weeks at 37 °C, and the amount of furosine which was formed by non-enzymatic glycosylation was determined by HPLC according to the method of Schleicher et al. (J. Clin. Biochem., 19:81-87 (1981).] Thus, the sample solutions after reaction were dialyzed, and aliquots of 1 ml were lyophylized and then hydrolyzed by the addition of 1 ml of 6 N hydrochloric acid followed by heating at 100 °C for 20 hours. After removal of hydrochloric acid by evaporation, 1 ml of water was added to each sample, and the samples were subjected to filtration using a filter with the pore size of 0.45 µm. The filtrate was used as the sample for HPLC. ODS-120T (Toso) was used for the column and 7 mM phosphoric acid solution was used as the eluant. The absorbance peak whose ratio of peak area at 280 mm/254 mm was 3.9/1 was regarded as the peak corresponding to furosine.
Upon the area of the peak of furosine of each sample, the inhibition rate of furosine formation by the test compound was calculated as follows. Inhibition rate (%)=(c-d)+(c-n)×100 c; peak area of furosine of the control sample d; peak area of furosine of the test sample n; peak area of furosine of the normal sample
`O=C(O)c1cc(O)c2c(n1)C(=O)C=C(O)C2=O` [T-1]: the inhibition at 5000 µM was 77.8%.

As to `Cc1cc(O)c2c(n1)C(=O)C=CC2=O` [T-9], the inhibition at 5000 µM stood at 99.5%.

For `O=C(O)c1cnc2c(c1O)C(=O)C=CC2=O` [T-7], the inhibition at 5000 µM is 79.9%.

Take `CCOC(=O)c1cnc2c(c1O)C(=O)C=CC2=O` [T-8]: the inhibition at 5000 µM turned out to be 96.9%.

Take `O=C(O)c1cc(O)c2c(O)ccc(O)c2n1` [T-5]: the inhibition at 5000 µM turned out to be 78.9%.

Consider `N=C(N)NN` [Aminoguanidine, aminoguanidine, reference compound], for which the inhibition at 5000 µM was determined as 7.5%.

For `O=c1ccc2[n+]([O-])c3ccc(O)cc3oc-2c1` [T-10, resazurin], the inhibition at 5000 µM stood at 73.8%.

Consider `O=C(O)c1cc(O)c2c(n1)C(=O)C=CC2=O` [T-6], for which the inhibition at 5000 µM is 76%.

With `Oc1ccc(O)c2c(O)cc(C(F)(F)F)nc12` [T-2], the inhibition at 5000 µM is 79.9%.

Consider `O=C1C=CC(=O)c2c(O)cc(C(F)(F)F)nc21` [T-3], for which the inhibition at 5000 µM stood at 73.4%.

Take `COC(=O)c1cc(O)c2c(n1)C(=O)C=CC2=O` [T-4]: the inhibition at 5000 µM is 92.5%.
